This note sets out measurements from EP1023836A1, “Compositions and methods for inhibiting the growth of fungi” (UNILEVER N.V., priority 1999, dated 2000).

Each structure is given as a SMILES string.

Holding throughout (type): cell-based
Test [1] has as its system Saccharomyces cerevisiae wild type strain SU-50. The experiment in a line: Growth curves / growth inhibition of yeast strain SU-50. As to conditions: for effect on growth: comparative sugar 25 mM with 25 µM MB21, strain SU50, 100 cells per ml, versus reference (no sugar, no MMAS) and MB21 alone (Fig. 5a). As to the method:
(§1) For examples 2, and 4-9 grow-curves were recorded at 25°C using a microbiology growth reader (Bioscreen C, ex Labsystems). For example 3, growth curve was determined as turbidity, measured by hand at a wave length of 660 nm (OD 660).
(§2) • a) Saccharomyces cerevisiae strain SU52-pUR 5801 was grown in YNB and YEPD media, at 30°C with shaking at 225 rpm in an orbital incubator until a OD (660 nm) between 5 and 6 was reached. In parallel experiments several concentrations of β-gentiobiose or pustulan fragments were included in the media. After cultivation, the media were separated from the cells by centrifugation (10.000 x g for 15 mm at 4°C). The media were then filtered using 0.22 µM filters. Secretion of α-galactosidase-CWP2p was assessed by measuring α-galactosidase enzyme activity in the media (see further on). • b) Growth curves were obtained with the strain SU-50. The cells (about 10 per ml) were cultured in YEPD at 25°C in the presence or absence of β-gentiobiose or pustulan fragments and MB-21, by using a 24 well plate at room temperature with continuous shaking on a micro-titre plate shaker (mark 4) or a microbiology growth reader (Bioscreen C).
(§3) Three YEPD media were prepared, one without MB21, the other YEPD media contained 10 µM MB21 and 20 µM MB21, respectively. To these media β-gentiobiose was added in concentrations of 0, 50, 100 and 200 mM. The yeast strain SU50 was inoculated in these media in a concentration of 10 cells per ml, and cultivated in a 24 well plate at 25°C. Samples were taken from a 24 well plate at regular time intervals, diluted sixty times with distilled water and measured at 660 nm to construct the growth curves. […] However, if the sub-lethal concentrations of MB21 and β-gentiobiose are combined, a clear reduction in growth potential of SU50 (10 cells per ml) was observed.
This example illustrates a relationship between the length of the β-(1,6)-glucan fragments and their effectiveness in competition. When the same concentration of MB21 (20 µM) was used [about 50 cells per ml] was used, a glucan fragment was obtained from pustulan with an average MW of 686, which was at least hundred times as effective as β-gentiobiose, as shown in Fig. 4.
(§4) In this example, three strains are grown in various media in the fashion of example 3, with the exception of being inoculated in the media in a concentration of 100 cells per ml. The sugars used are all comparatives: laminaribiose (β-1,3)-linked D-glucose), sucrose (having a 1,2 link), and sorbitol.
In this example, strain SU 50 was grown three media (see table 2) in the fashion of example 3, with the exception of being inoculated in the media in a concentration of 100 cells per ml.

The test system of test [2] is Zygosaccharomyces bailii G1. Briefly: Growth curves / growth inhibition of yeast strain G1. The conditions noted are these: comparative sugar 200 mM with 6 µM MB21, strain G1, 100 cells per ml; versus reference and MB21 alone (Fig. 5c). As to the method:
as §1, §3, §4
In this example, strain G1 was grown three media (see table 4) in the fashion of example 3, with the exception of being inoculated in the media in a concentration of 100 cells per ml. […]

Test [3] concerns Zygosaccharomyces bailii ZB (NCYC 563). Briefly: Growth curves / growth inhibition of yeast strain ZB. The conditions noted are these: comparative sugar 200 mM with 6 µM MB21, strain ZB, 100 cells per ml; versus reference and MB21 alone (Fig. 5b). The procedure:
as §1, §3, §4
In this example, strain ZB was grown three media (see table 3) in the fashion of example 3, with the exception of being inoculated in the media in a concentration of 100 cells per ml.

Test [4] has as its system Saccharomyces cerevisiae strain SU52-pUR5801. Briefly: Cell wall protein release test (secretion of α-galactosidase-CWP2p fusion protein, α-galactosidase activity in the medium). The conditions noted are these: β-gentiobiose 10, 50 and 100 mM in YEPD with 5% galactose, 30 °C, 18 hours; linear up to 100 mM (Fig. 1). As to the method:
as §2
α-Galactosidase activity was determined at 37°C using p-nitrophenyl α-D-galactopyranoside (PNPG) as substrate in 0.1 M potassium acetate buffer, pH 5.0. […] The extinction of the liberated p-nitrophenolate was recorded at 405 nm.
β-Gentiobiose was dissolved in YEPD media supplemented with 5% galactose, in concentrations of 10, 50 and 100 mM respectively. […] The enzyme activity of the fusion protein CWP2-α-galactosidase was measured as described in the α-galactosidase assay. […]

As for `OC[C@H]1O[C@@H](O[C@H]2[C@H](O)[C@@H](CO)OC(O)[C@@H]2O)[C@H](O)[C@@H](O)[C@@H]1O` (stereo partly drawn) [laminaribiose], the effect on growth result in test [1] is given as “stimulating effect”.
In the case of `OC[C@@H](O)[C@@H](O)[C@H](O)[C@@H](O)CO` [sorbitol], the effect on growth result in test [2], in test [1] and in test [3] was “stimulating effect” each time.
For `OC[C@H]1O[C@@](CO)(O[C@H]2O[C@H](CO)[C@@H](O)[C@H](O)[C@H]2O)[C@@H](O)[C@@H]1O` [sucrose], the effect on growth entry in test [2], in test [1] and in test [3] was “stimulating effect” in each case.
Take `OC[C@H]1O[C@@H](OC[C@H]2O[C@@H](O)[C@H](O)[C@@H](O)[C@@H]2O)[C@H](O)[C@@H](O)[C@@H]1O` [β-Gentiobiose, 6-O-β-D-glucopyranosyl-β-D-glucose]: the “release of the fusion protein α-galactosidase-CW2p from the cell wall” value in test [4] is reported as “concentration dependent”. For the same compound, in test [1] (β-gentiobiose as such (0, 50, 100, 200 mM), no MB21, 10 cells per ml, 25°C, OD 660 (Fig. 3)), the “growth of SU-50” value is “no influence”.
